Data taken from ChEMBL document CHEMBL1144573, “Lead optimization of [(S)-gamma-(arylamino)prolyl]thiazolidine focused on gamma-substituent: Indoline compounds as potent DPP-IV inhibitors” (Bioorg Med Chem, 2007).

Key:
[1] = target: Dipeptidyl peptidase 4 (Rattus norvegicus, UniProt P14740); test: Inhibition of DPP4 in rat plasma by fluorescence assay; format: cell-free
[2] = target: Dipeptidyl peptidase 4 (Homo sapiens, UniProt P27487); format: cell-free, Plasma
Chain of Dipeptidyl peptidase 4 (Homo sapiens, UniProt P27487) (P27487 whole entry): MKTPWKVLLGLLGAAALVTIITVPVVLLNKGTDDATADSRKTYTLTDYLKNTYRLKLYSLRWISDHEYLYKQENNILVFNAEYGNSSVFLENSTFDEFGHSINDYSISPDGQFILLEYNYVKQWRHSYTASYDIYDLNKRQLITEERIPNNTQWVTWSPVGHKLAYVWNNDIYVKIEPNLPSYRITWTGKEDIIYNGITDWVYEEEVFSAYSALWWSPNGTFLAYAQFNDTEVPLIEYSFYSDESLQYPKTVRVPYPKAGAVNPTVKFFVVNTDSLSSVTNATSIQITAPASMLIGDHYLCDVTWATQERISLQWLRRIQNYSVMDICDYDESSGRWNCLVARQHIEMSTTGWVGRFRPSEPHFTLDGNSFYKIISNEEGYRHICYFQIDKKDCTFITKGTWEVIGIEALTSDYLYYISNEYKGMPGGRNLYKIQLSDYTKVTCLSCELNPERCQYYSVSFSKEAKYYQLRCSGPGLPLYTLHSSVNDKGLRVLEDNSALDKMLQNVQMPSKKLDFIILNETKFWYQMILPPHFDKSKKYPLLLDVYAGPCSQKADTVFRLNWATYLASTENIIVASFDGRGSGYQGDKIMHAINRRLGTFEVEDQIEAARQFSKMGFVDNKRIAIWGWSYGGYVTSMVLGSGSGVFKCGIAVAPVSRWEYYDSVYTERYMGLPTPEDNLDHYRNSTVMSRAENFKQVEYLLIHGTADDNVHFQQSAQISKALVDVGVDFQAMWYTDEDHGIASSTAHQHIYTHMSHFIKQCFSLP

Chain of Dipeptidyl peptidase 4 (Rattus norvegicus, UniProt P14740) (P14740 whole entry): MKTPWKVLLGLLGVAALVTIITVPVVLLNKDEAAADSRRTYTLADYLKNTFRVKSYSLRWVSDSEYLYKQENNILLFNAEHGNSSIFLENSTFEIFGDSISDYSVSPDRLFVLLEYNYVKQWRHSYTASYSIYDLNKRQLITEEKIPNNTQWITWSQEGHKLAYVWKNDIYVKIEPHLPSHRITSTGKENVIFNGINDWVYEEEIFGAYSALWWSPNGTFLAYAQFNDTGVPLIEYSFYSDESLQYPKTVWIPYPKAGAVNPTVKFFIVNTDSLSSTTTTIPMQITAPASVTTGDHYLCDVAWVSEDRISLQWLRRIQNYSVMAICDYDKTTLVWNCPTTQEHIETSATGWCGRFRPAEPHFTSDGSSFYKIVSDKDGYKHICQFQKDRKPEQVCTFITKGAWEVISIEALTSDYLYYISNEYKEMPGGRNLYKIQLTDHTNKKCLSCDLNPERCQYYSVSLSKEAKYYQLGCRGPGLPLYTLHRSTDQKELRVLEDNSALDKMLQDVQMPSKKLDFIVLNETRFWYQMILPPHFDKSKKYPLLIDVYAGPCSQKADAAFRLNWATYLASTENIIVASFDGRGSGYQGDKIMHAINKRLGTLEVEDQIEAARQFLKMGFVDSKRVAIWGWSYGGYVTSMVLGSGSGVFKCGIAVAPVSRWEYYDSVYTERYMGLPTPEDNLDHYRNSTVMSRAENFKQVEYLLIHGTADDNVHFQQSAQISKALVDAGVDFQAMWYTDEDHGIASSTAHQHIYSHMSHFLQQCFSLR

An IC50 [1] of 19.5 nM was found for `O=C([C@@H]1C[C@H](N2CCc3ccccc32)CN1)N1CCSC1` in this work.

`O=C(N[C@@H]1CN[C@H](C(=O)N2CCSC2)C1)c1ccccc1` was tested, and the IC50 [2] was > 300 nM.

An IC50 [1] of 10.1 nM was found for `O=C([C@@H]1C[C@H](N2CCc3cc(F)ccc32)CN1)N1CCSC1` in this work.

In the case of `O=C(O[C@@H]1CN[C@H](C(=O)N2CCSC2)C1)c1ccccc1`, the IC50 [1] is reported as > 300 nM and the IC50 [2] is reported as > 300 nM.

An IC50 [1] of 10.7 nM was found for `O=C([C@@H]1C[C@H](N2CCc3cc(Br)ccc32)CN1)N1CCSC1` in this work.

An IC50 [1] of 23 nM was found for `N#Cc1ccc(CN(CCO)[C@@H]2CN[C@H](C(=O)N3CCSC3)C2)cc1` in this work.

For `N#Cc1ccc(C(=O)O[C@@H]2CN[C@H](C(=O)N3CCSC3)C2)cc1`, the IC50 [1] was > 300 nM and the IC50 [2] was > 300 nM.

`O=C([C@@H]1C[C@H](NS(=O)(=O)c2ccccc2)CN1)N1CCSC1` was tested, and the IC50 [1] was > 300 nM and the IC50 [2] was > 300 nM.

An IC50 [1] of 10.3 nM was found for `O=C([C@@H]1C[C@H](N2CCc3cc([N+](=O)[O-])ccc32)CN1)N1CCSC1` in this work.

An IC50 [1] of 54.9 nM was found for `COc1ccc(N[C@@H]2CN[C@H](C(=O)N3CCSC3)C2)cc1` in this work.

An IC50 [1] of 13.6 nM was found for `CN(Cc1ccc(C#N)cc1)[C@@H]1CN[C@H](C(=O)N2CCSC2)C1` in this work.

For `N#Cc1ccc(S(=O)(=O)N[C@@H]2CN[C@H](C(=O)N3CCSC3)C2)cc1`, the IC50 [1] was > 300 nM and the IC50 [2] was > 300 nM.

An IC50 [1] of 13.4 nM was found for `O=C([C@@H]1C[C@H](N2CCc3cc(Cl)ccc32)CN1)N1CCSC1` in this work.
